Data taken from PubChem BioAssay (NCI).
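These data come from cells grown in 96-well plates and exposed to compound for 48 hours at five concentrations. The concentration for full growth arrest is given as TGI.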

Legend:
Experiment in all cases: NCI tumour cell line growth inhibition, 48 h
OVCAR-3 ovarian = test system: OVCAR-3 ovarian
NCI/ADR-RES ovarian = test system: NCI/ADR-RES ovarian
UACC-62 melanoma = test system: UACC-62 melanoma
NCI-H522 lung = test system: NCI-H522 lung
MOLT-4 leukemia = test system: MOLT-4 leukemia
SK-MEL-28 melanoma = test system: SK-MEL-28 melanoma
COLO 205 colon = test system: COLO 205 colon
A549 NSCLC = test system: A549 NSCLC
T-47D breast = test system: T-47D breast
SNB-19 CNS = test system: SNB-19 CNS
SK-MEL-2 melanoma = test system: SK-MEL-2 melanoma
SF-268 CNS = test system: SF-268 CNS
HS 578T breast = test system: HS 578T breast
MCF7 breast = test system: MCF7 breast
OVCAR-8 ovarian = test system: OVCAR-8 ovarian
SNB-75 CNS = test system: SNB-75 CNS
MDA-N = test system: MDA-N
HCT-116 colon = test system: HCT-116 colon
BT-549 breast = test system: BT-549 breast

SMILES	TGI (OVCAR-3 ovarian) [µM]	TGI (NCI/ADR-RES ovarian) [µM]	TGI (UACC-62 melanoma) [µM]	TGI (NCI-H522 lung) [µM]	TGI (MOLT-4 leukemia) [µM]	TGI (SK-MEL-28 melanoma) [µM]	TGI (COLO 205 colon) [µM]	TGI (A549 NSCLC) [µM]	TGI (T-47D breast) [µM]	TGI (SNB-19 CNS) [µM]	TGI (SK-MEL-2 melanoma) [µM]	TGI (SF-268 CNS) [µM]	TGI (HS 578T breast) [µM]	TGI (MCF7 breast) [µM]	TGI (OVCAR-8 ovarian) [µM]	TGI (SNB-75 CNS) [µM]	TGI (MDA-N) [µM]	TGI (HCT-116 colon) [µM]	TGI (BT-549 breast) [µM]
Cc1ccc(/C(Cl)=C/C=C(C#N)C#N)cc1	3.91	4.48	15.7	5.17	> 100	5.12	12.1	56	> 100	24	> 100	21.3	5.58	> 100	8.67	37.6			
O=C1N[C@H]2c3c(Cl)sc(Cl)c3[C@@H](O)[C@H]2O1	> 100	> 100	> 100		> 100	> 100	> 100	> 100	> 100	> 100	> 100	> 100		> 100	> 100	> 100	> 100	> 100	> 100
CCOCc1c(C)cc(C)c(C2C(C(=O)c3ccccc3)N3c4ccccc4C=CC3C2(C#N)C(=O)OCC)c1C (centres undefined)	> 100	> 100	> 100		> 100	> 100	53.7			> 100		> 100	> 100	> 100			87	> 100	75.8
COc1ccccc1N(CN1C(=O)CCC1C(=O)O)C(C)=O (centres undefined)	> 100	> 100	> 100	> 100	> 100	> 100	> 100	> 100	> 100	> 100	> 100	> 100	> 100	> 100	> 100	> 100	> 100	> 100	
O=C1c2[nH]c3ccc(Br)cc3c2CCN1Cc1ccc(Cl)cc1	28.5	40.6	28.2	37.9		31.6	34.5	26.9	29.2	32.7	47.4	33.2	43.3	35.7	48.5	38.5	30.7	23.5	
O=c1c2ccccc2[nH]c2c(Cl)cc(Cl)c(NC3CCCCC3)c12	28	44	36.6	44	86.9	> 100	> 100	> 100	> 100	38.8	41.9			76.2	44.8	83.6	79.1	> 100	67.3
CN(C)/N=C(/CC(O)(C(F)(F)F)C(F)(F)F)c1ccc([N+](=O)[O-])cc1	> 100	> 100	> 100	> 100	> 100	> 100	> 100	> 100	> 100	> 100	> 100	> 100	> 100		> 100	> 100	> 100	> 100	
O=C(Cn1c2c(c3ccccc31)CCCC2)N1CCCC1	> 100	> 100	> 100			> 100	> 100	> 100		> 100	> 100		87.2	> 100	> 100		> 100	> 100	> 100
Nc1nc(I)nc2c1ncn2C1OC(COS(N)(=O)=O)C(O)C1O (centres undefined)	0.012	< 0.0125	0.0606	< 0.01	0.0416	0.0148	0.0167	0.201		< 0.013	0.0107	0.018	0.0273	0.207	< 0.0106	< 0.0136	0.0135	0.0534	0.103
O=c1[nH]c(=O)n(CCOc2ccccc2)cc1Nc1ccccc1	> 100	> 100	> 100	> 100	> 100	> 100	> 100	> 100		> 100		> 100	> 100	> 100			> 100	> 100	
N#CC12CNCC1CN=N2 (centres undefined)	> 100	> 100	> 100	> 100	> 100	> 100	> 100	> 100	> 100	> 100	> 100	> 100		> 100	> 100	> 100	> 100	> 100	> 100
N#CC1C(=O)N(c2ccccc2)NC12OC(=O)c1ccncc12 (centres undefined)	> 20	> 20	> 20	> 20	> 20	> 20	> 20	> 20	> 20	> 20	> 20			> 20	> 20		> 20	> 20	> 20
CC(C)(C)OC(=O)CN1C(=O)CC1CC(=O)c1ccccc1 (centres undefined)	33.5	> 100	41.3	33.7	25.3	36.7	49.6	> 100		41.9	32.2	37.7	84.2	36.1	32.6		42.2	49.7	35.5
CCN(CC)CCn1nc(N)c2nc3ccccc3nc21	> 100	> 100	> 100	> 100	> 100	> 100		> 100		> 100	> 100	> 100	> 100	> 100	> 100	> 100	> 100	> 100	> 100
O=[N+]([O-])c1ccc2c(c1)S(=O)(=O)N1Cc3ccccc3CCN21	> 100	> 100	> 100	> 100	> 100	> 100	> 100	> 100		> 100	> 100	> 100	> 100	> 100	> 100	> 100		> 100	
O=P1(O)c2ccccc2CCc2ccccc21	> 100		> 100	> 100	> 100	> 100	> 100	> 100		> 100	> 100	> 100	> 100	> 100	> 100	> 100	> 100	> 100	> 100
CC(=O)N(C(C)=O)n1c(Cc2ccc(Cl)cc2)n[nH]c1=O	> 100	> 100	> 100	> 100	> 100	> 100	> 100	> 100		> 100	> 100	> 100	> 100	> 100	> 100	> 100	> 100	> 100	> 100
COC(=O)/C=C(/C=C1/C(C#N)=C(N)N(c2ccc(Cl)cc2)C1(C)/C(=C/C(=O)OC)C(=O)OC)C(=O)OC (centres undefined)	> 100	> 100	> 100	> 100	> 100	> 100	> 100		> 100	> 100	> 100	> 100		> 100	> 100	76	> 100	> 100	
O=C(O)C1CCCN(CCc2c[nH]c3ccccc23)C1 (centres undefined)	> 100	> 100	> 100	> 100	> 100	> 100	> 100	> 100	> 100	> 100	> 100	> 100		> 100	> 100	> 100	> 100	> 100	> 100
NCCCCC(NC(=O)C(N)Cc1ccc(O)cn1)C(=O)O (centres undefined)	> 100	> 100		> 100	> 100	> 100	> 100	> 100		> 100		> 100	> 100	> 100	> 100		> 100	> 100	> 100
CC(CCC(=O)O)(c1ccc(O)cc1)c1ccc(O)cc1	> 100	> 100	> 100	> 100	> 100	> 100		> 100	> 100	> 100	> 100	> 100	> 100		> 100		> 100	> 100	> 100
CCC(C)(C)C1CCC2c3c([nH]c4ccccc34)C3C(=O)N(c4ccc(OC)cc4)C(=O)C3C2C1 (centres undefined)	7.28	44.4	> 100	20.6	60.8	> 100	24.7	35.5	38.4	86.2	40.3	43.6		22.6	30.4	42.2	68.6	37.2	42.6
CCOC(=O)N(NC(=O)NC(C)C)c1ccccc1	> 100	> 100	> 100		> 100	> 100	> 100	> 100		> 100	> 100		> 100	> 100	> 100	> 100	> 100	> 100	> 100
O=C(O)CCCn1nnc2c(=O)[nH][nH]c(=O)c21	> 100	> 100			> 100	> 100	> 100	> 100		> 100	> 100			> 100	> 100		> 100	> 100	> 100
OC1(c2ccccc2)C2CCN(CC2)C1CN1CCOCC1 (centres undefined)	> 100	> 100	> 100	> 100	> 100	> 100	> 100	> 100	> 100	> 100	> 100	> 100		> 100	> 100	> 100		> 100	
Cc1c(C)c(C)n(C2OC(CO)C(O)C(O)C2O)c(=S)c1C#N (centres undefined)	> 100	> 100	> 100	> 100	> 100	> 100	> 100	> 100	> 100	> 100	> 100	> 100		> 100	> 100	> 100	> 100	> 100	
Nc1nc(Cl)c(CO)c(NCC2(CO)CC(CCc3ccccc3)C2)n1 (centres undefined)	63.1	73.8		86.3	14.7	47	> 100	34.5		> 100		> 100		45.5	35.6	51.2	> 100	31.9	71.1
[Cl-].[Rh+3].c1cnc2c(c1)ccc1cccnc12.c1cnc2c(c1)ccc1cccnc12.c1cnc2c(c1)ccc1cccnc12	> 100		> 100	> 100	> 100			> 100			> 100				> 100	> 100		> 100	
c1ccc2c(c1)CC1=C(O2)c2ccccc2OC1	48.7	> 100	92.8	44.5	80.1		38.3	> 100	67.9		70.3	> 100		> 100	> 100		45.5	30.6	51.1
